Reference: PubChem BioAssay (NCI)
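How tested: cells in 96-well plates exposed to compound for 48 hours at five concentrations. GI50: concentration for 50% inhibition of growth. Definition used: TGI = concentration required for complete inhibition of growth.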

Assays:
Assay in all cases: NCI tumour cell line growth inhibition, 48 h
DU-145 prostate = test system: DU-145 prostate
MOLT-4 leukemia = test system: MOLT-4 leukemia
OVCAR-5 ovarian = test system: OVCAR-5 ovarian
HS 578T breast = test system: HS 578T breast
SK-MEL-5 melanoma = test system: SK-MEL-5 melanoma
BT-549 breast = test system: BT-549 breast
HOP-62 NSCLC = test system: HOP-62 NSCLC
786-0 renal = test system: 786-0 renal
HT29 colon = test system: HT29 colon
NCI/ADR-RES ovarian = test system: NCI/ADR-RES ovarian
RPMI-8226 leukemia = test system: RPMI-8226 leukemia
HOP-92 NSCLC = test system: HOP-92 NSCLC
HCC-2998 colon = test system: HCC-2998 colon
SN12C renal = test system: SN12C renal
A498 renal = test system: A498 renal
SF-539 CNS = test system: SF-539 CNS
COLO 205 colon = test system: COLO 205 colon
OVCAR-8 ovarian = test system: OVCAR-8 ovarian
SR leukemia = test system: SR leukemia
NCI-H460 lung = test system: NCI-H460 lung
MDA-MB-231 breast = test system: MDA-MB-231 breast
ACHN renal = test system: ACHN renal
SK-MEL-28 melanoma = test system: SK-MEL-28 melanoma
HCT-15 colon = test system: HCT-15 colon
MALME-3M melanoma = test system: MALME-3M melanoma
NCI-H23 lung = test system: NCI-H23 lung
HL-60(TB) leukemia = test system: HL-60(TB) leukemia
NCI-H522 lung = test system: NCI-H522 lung
NCI-H226 lung = test system: NCI-H226 lung
SNB-75 CNS = test system: SNB-75 CNS
UACC-62 melanoma = test system: UACC-62 melanoma
SF-295 CNS = test system: SF-295 CNS
SNB-19 CNS = test system: SNB-19 CNS
IGROV1 ovarian = test system: IGROV1 ovarian
KM12 colon = test system: KM12 colon
TK-10 renal = test system: TK-10 renal
OVCAR-3 ovarian = test system: OVCAR-3 ovarian
UACC-257 melanoma = test system: UACC-257 melanoma
RXF 393 renal = test system: RXF 393 renal
SK-OV-3 ovarian = test system: SK-OV-3 ovarian
SF-268 CNS = test system: SF-268 CNS
A549 NSCLC = test system: A549 NSCLC
LOX IMVI melanoma = test system: LOX IMVI melanoma
T-47D breast = test system: T-47D breast
OVCAR-4 ovarian = test system: OVCAR-4 ovarian
MDA-MB-435 = test system: MDA-MB-435
M14 melanoma = test system: M14 melanoma
EKVX NSCLC = test system: EKVX NSCLC
CCRF-CEM leukemia = test system: CCRF-CEM leukemia
SK-MEL-2 melanoma = test system: SK-MEL-2 melanoma
PC-3 prostate = test system: PC-3 prostate
SW-620 colon = test system: SW-620 colon
UO-31 renal = test system: UO-31 renal
U251 CNS = test system: U251 CNS
K-562 leukemia = test system: K-562 leukemia

SMILES: N#CCC1(n2cc(-c3ncnc4[nH]ccc34)cn2)CN(C2CCN(C(=O)c3ccnc(C(F)(F)F)c3F)CC2)C1
- GI50 (DU-145 prostate): > 100 µM
- TGI (DU-145 prostate): > 100 µM
- GI50 (MOLT-4 leukemia): 49.9 µM
- TGI (MOLT-4 leukemia): > 100 µM
- GI50 (OVCAR-5 ovarian): > 100 µM
- TGI (OVCAR-5 ovarian): > 100 µM
- GI50 (HS 578T breast): 28.1 µM
- TGI (HS 578T breast): > 100 µM
- GI50 (SK-MEL-5 melanoma): 65.3 µM
- TGI (SK-MEL-5 melanoma): > 100 µM
- GI50 (BT-549 breast): 37.5 µM
- TGI (BT-549 breast): > 100 µM
- GI50 (HOP-62 NSCLC): > 100 µM
- TGI (HOP-62 NSCLC): > 100 µM
- GI50 (786-0 renal): > 100 µM
- TGI (786-0 renal): > 100 µM
- GI50 (HT29 colon): > 100 µM
- TGI (HT29 colon): > 100 µM
- GI50 (NCI/ADR-RES ovarian): > 100 µM
- TGI (NCI/ADR-RES ovarian): > 100 µM
- GI50 (RPMI-8226 leukemia): 98.2 µM
- TGI (RPMI-8226 leukemia): > 100 µM
- GI50 (HOP-92 NSCLC): 20.7 µM
- TGI (HOP-92 NSCLC): > 100 µM
- GI50 (HCC-2998 colon): > 100 µM
- TGI (HCC-2998 colon): > 100 µM
- GI50 (SN12C renal): 69.8 µM
- TGI (SN12C renal): > 100 µM
- GI50 (A498 renal): 29.1 µM
- TGI (A498 renal): > 100 µM
- GI50 (SF-539 CNS): 37.9 µM
- TGI (SF-539 CNS): > 100 µM
- GI50 (COLO 205 colon): 57.8 µM
- TGI (COLO 205 colon): > 100 µM
- GI50 (OVCAR-8 ovarian): > 100 µM
- TGI (OVCAR-8 ovarian): > 100 µM
- GI50 (SR leukemia): 51.4 µM
- TGI (SR leukemia): > 100 µM
- GI50 (NCI-H460 lung): > 100 µM
- TGI (NCI-H460 lung): > 100 µM
- GI50 (MDA-MB-231 breast): 46.6 µM
- TGI (MDA-MB-231 breast): > 100 µM
- GI50 (ACHN renal): > 100 µM
- TGI (ACHN renal): > 100 µM
- GI50 (SK-MEL-28 melanoma): > 100 µM
- TGI (SK-MEL-28 melanoma): > 100 µM
- GI50 (HCT-15 colon): > 100 µM
- TGI (HCT-15 colon): > 100 µM
- GI50 (MALME-3M melanoma): > 100 µM
- TGI (MALME-3M melanoma): > 100 µM
- GI50 (NCI-H23 lung): > 100 µM
- TGI (NCI-H23 lung): > 100 µM
- GI50 (HL-60(TB) leukemia): > 100 µM
- TGI (HL-60(TB) leukemia): > 100 µM
- GI50 (NCI-H522 lung): > 100 µM
- TGI (NCI-H522 lung): > 100 µM
- GI50 (NCI-H226 lung): 19.3 µM
- TGI (NCI-H226 lung): > 100 µM
- GI50 (SNB-75 CNS): 25.7 µM
- TGI (SNB-75 CNS): > 100 µM
- GI50 (UACC-62 melanoma): 76.4 µM
- TGI (UACC-62 melanoma): > 100 µM
- GI50 (SF-295 CNS): 53.9 µM
- TGI (SF-295 CNS): > 100 µM
- GI50 (SNB-19 CNS): > 100 µM
- TGI (SNB-19 CNS): > 100 µM
- GI50 (IGROV1 ovarian): > 100 µM
- TGI (IGROV1 ovarian): > 100 µM
- GI50 (KM12 colon): 36.1 µM
- TGI (KM12 colon): > 100 µM
- GI50 (TK-10 renal): 55.3 µM
- TGI (TK-10 renal): > 100 µM
- GI50 (OVCAR-3 ovarian): > 100 µM
- TGI (OVCAR-3 ovarian): > 100 µM
- GI50 (UACC-257 melanoma): > 100 µM
- TGI (UACC-257 melanoma): > 100 µM
- GI50 (RXF 393 renal): 28.2 µM
- TGI (RXF 393 renal): > 100 µM
- GI50 (SK-OV-3 ovarian): > 100 µM
- TGI (SK-OV-3 ovarian): > 100 µM
- GI50 (SF-268 CNS): > 100 µM
- TGI (SF-268 CNS): > 100 µM
- GI50 (A549 NSCLC): > 100 µM
- TGI (A549 NSCLC): > 100 µM
- GI50 (LOX IMVI melanoma): 96.8 µM
- TGI (LOX IMVI melanoma): > 100 µM
- GI50 (T-47D breast): 51.7 µM
- TGI (T-47D breast): > 100 µM
- GI50 (OVCAR-4 ovarian): > 100 µM
- TGI (OVCAR-4 ovarian): > 100 µM
- GI50 (MDA-MB-435): 92.1 µM
- TGI (MDA-MB-435): > 100 µM
- GI50 (M14 melanoma): > 100 µM
- TGI (M14 melanoma): > 100 µM
- GI50 (EKVX NSCLC): > 100 µM
- TGI (EKVX NSCLC): > 100 µM
- GI50 (CCRF-CEM leukemia): 54.5 µM
- TGI (CCRF-CEM leukemia): > 100 µM
- GI50 (SK-MEL-2 melanoma): > 100 µM
- TGI (SK-MEL-2 melanoma): > 100 µM
- GI50 (PC-3 prostate): > 100 µM
- TGI (PC-3 prostate): > 100 µM
- GI50 (SW-620 colon): 83.5 µM
- TGI (SW-620 colon): > 100 µM
- GI50 (UO-31 renal): 49.2 µM
- TGI (UO-31 renal): > 100 µM
- GI50 (U251 CNS): > 100 µM
- TGI (U251 CNS): > 100 µM
- GI50 (K-562 leukemia): 99.2 µM
- TGI (K-562 leukemia): > 100 µM
